Test results taken from US8101764B2, “MCH receptor antagonists” (Eli Lilly and Company, priority 2006, dated 2012).
Counter-ions that a name gives are not always drawn.

Experiments:
[1] = In vivo efficacy in diet-induced obese rats, oral gavage, body weight change over 3 days; conditions: 10 mg/Kg orally once a day for 3 days, diet-induced obese male Long-Evans rats
Protocol: Vehicle consisted of 10% acacia and 0.15% saccharin in water.
House animals individually in a temperature regulated room (24° C.) with a reverse 12 hour light/dark cycle (dark 10:00/22:00). Make water and food (Teklad 95217, Harlan, WI) available ad libitum. Dose compounds orally once a day before onset of dark for 3 days. Measure daily food intake and body weight change for the 3 day period. The compound of Example 5 produced an average body weight reduction of about 11 grams @ 10 mg/Kg versus vehicle control.

human MCHR1 [2] = target: T1, human MCHR1 (Homo sapiens, UniProt Q99705); assay: Inhibition of MCH-stimulated GTPγ35S binding to clone 43 membranes (functional antagonism); format: biochemical; conditions: 10 nM MCH, Kb from IC50 by modified Cheng-Prusoff
T1 construct: The full-length cDNA for human MCHR1 is cloned from a human adult brain cDNA library; expressed in transfected cells; host or cells: AV12 cells previously transfected with Gα15; membranes
Protocol: (§1) The full-length cDNA for human MCHR1 is cloned from a human adult brain cDNA library (Edge Biosystems, Cat. 38356) by standard polymerase chain reaction (PCR) methodology employing the following primers: sense, 5′-GCCACCATGGACCT GGAAGCCTCGCTGC-3′ (SEQ ID NO:1); anti-sense, 5′-[…]-3′ (SEQ ID NO:2). The PCR reaction is performed in a final volume of 50 μL containing 5 μL of a 10× stock solution of PCR buffer, 1 μL of 10 mM dNTP mixture (200 μM final), 2 μL of 50 mM Mg(SO4) (2 mM final), 0.5 μL of 20 μM solutions of each primer (0.2 μM final), 5 μL of template cDNA containing 0.5 ng DNA, 0.5 μL of Platinum Taq High Fidelity DNA polymerase (Gibco Life Technologies) and 36 μL of H2O. PCR amplification is performed on a Perkin Elmer 9600 thermocycler. Perform denaturation for 90 sec at 94° C., and repeat an amplification sequence consisting of 94° C. for 25 sec, 55° C. for 25 sec and 72° C. for 2 mM 30 times, followed by a final elongation step at 72° C. for 10 min. […]
(§2) In order to generate cell lines stably expressing MCHR1, subclone the insert into the Xba I and Not I sites of pcDNA(+)-3.1-neomycin (Invitrogen). […] The G418-resistant colonies are further selected for MCHR1 expression by measuring MCH-stimulated Ca^2+ transients with a fluorometric imaging plate reader (FLIPR, Molecular Devices). […]

human MCHR1 [3] = target: T1, human MCHR1; assay: 125I-MCH competitive binding assay with clone 43 membranes; conditions: Ki from IC50 by Cheng-Prusoff
Protocol: as §1, with “H2O.” for “H2O. PCR amplification is performed on a Perkin Elmer 9600 thermocycler. Perform denaturation for 90 sec at 94° C., and repeat an amplification sequence consisting of 94° C. for 25 sec, 55° C. for 25 sec and 72° C. for 2 mM 30 times, followed by a final elongation step at 72° C. for 10 min.”
as §2
Binding of compounds to MCHR1 is assessed in a competitive binding assay employing ^125I-MCH, compound and clone 43 membranes. […] Non-specific binding is assessed in the presence of 0.1 μM unlabeled MCH. Bound ^125I-MCH is determined by placing sealed plates in a Microbeta Trilux (Perkin Elmer Life and Analytical Sciences Inc.) and counting after a 12 h delay. […]

T1 sequence (Q99705 whole entry): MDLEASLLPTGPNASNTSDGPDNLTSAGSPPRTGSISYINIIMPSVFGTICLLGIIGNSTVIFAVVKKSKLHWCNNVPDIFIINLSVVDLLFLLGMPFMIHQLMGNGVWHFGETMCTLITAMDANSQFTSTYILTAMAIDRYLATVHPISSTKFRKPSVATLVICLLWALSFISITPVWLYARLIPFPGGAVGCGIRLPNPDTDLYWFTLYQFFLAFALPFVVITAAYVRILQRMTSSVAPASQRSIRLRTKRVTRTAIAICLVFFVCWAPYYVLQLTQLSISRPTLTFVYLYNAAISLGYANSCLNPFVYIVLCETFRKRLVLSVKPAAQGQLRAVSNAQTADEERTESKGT

Structure (SMILES) | average body weight reduction versus vehicle control [1] | Kb (human MCHR1 [2]) | Ki (human MCHR1 [3])
CN(C)[C@@H]1CCN(c2ccc(N3CCc4cc(-c5ccc(Cl)cc5)sc4C3=O)cn2)C1.Cl [Example 5, 2-(4-Chloro-phenyl)-6-[6-((R)-3-dimethylamino-pyrrolidin-1-yl)-pyridin-3-yl]-5,6-dihydro-4H-thieno[2,3-c]pyridin-7-one, hydrochloride] | about 11 grams | ~7 nM | 
CN(C)[C@@H]1CCN(c2ccc(-n3ccc4cc(-c5ccc(OC6CC6)cc5)sc4c3=O)cn2)C1 [Example 55, 2-(4-Cyclopropoxy-phenyl)-6-[6-(R)-(3-dimethylamino-pyrrolidin-1-yl)-pyridin-3-yl]-6H-thieno[2,3-c]pyridin-7-one, hydrochloride] |  |  | ~9 nM
